# Columns and labels:
# IL-8 and GM-CSF release = assay: Ozone-mediated cytokine release with extracellular nucleotide supplementation; assay type: cell-based, human
# Procedure: Ozone-mediated cytokine release was studied in polarized air-liquid interface cultures of non-CF and CF cell lines. 16HBEo- and CF4lo- cells were cultured on collagen coated 30 mm inserts. Once cells were polarized (8-10 days in culture) cells were exposed to 0, 100 or 200 ppb ozone with 200 μl media on the apical surface. At the end of exposure (18 h) additional 200 μl media was added to the apical surface. Aliquots were collected after 4 h and analyzed for the cytokine as described before. […] Apical media was collected and analyzed for IL-8 and GM-CSF.
# SERCA2 protein = SERCA2 protein expression by Western blot after CFTRinh172 treatment; assay type: cell-based, human; conditions: 20 μM, 24 h
# [1] = tested on: Primary human bronchial epithelial cells; assay: Cell death after ozone exposure with CFTRinh172; assay type: cell-based; conditions: 20 μM
# Procedure: For assessing ozone toxicity, primary human airway epithelial cells were transfected either with a control or SERCA2 siRNA for 24 h and exposed to 0 ppb or 200 ppb ozone for 18 h. Following exposure, cells were analyzed for cell death using Vybrant apoptosis assay kit (Molecular Probes, Eugene, Oreg.), as described before (63). In this method, apoptotic cells bearing phosphatidylserine in the plasma membrane outer leaflet were identified as those binding Alexa Fluor 488-labeled annexin V and necrotic cells as those binding fluorescent DNA-binding dye SYTOX Green. The Alexa Fluor-488 labeled annexin-positive apoptotic and Sytox green-positive dead cells were quantified by flow cytometry. The columns represent means of data and * indicates significant difference (p<0.05) from 0 ppb controls cells. # indicates significant difference from 200 ppb controls (n=3). This experiment was repeated 4 times.
# Exposure of airway epithelial cells to ozone at precise levels was carried out in a computer controlled in vitro exposure chamber as described previously (78). Primary human bronchial epithelial cells cultured on collagen-coated 6-well plates were treated with 20 μM CFTRinh172 for 30 min and then exposed to either 0 ppb (−) or 200 ppb (+) ozone. ATP content of the extracellular media was analyzed after 30 min and cell death was estimated after 8 h of ozone exposure as described in the Methods. […]
# [2] = tested on: Primary human bronchial epithelial cells; assay: Ozone-mediated extracellular ATP release with CFTRinh172; assay type: cell-based; conditions: 20 μM for 30 min, then 200 ppb ozone 30 min
# Procedure: Exposure of airway epithelial cells to ozone at precise levels was carried out in a computer controlled in vitro exposure chamber as described previously (78). Primary human bronchial epithelial cells cultured on collagen-coated 6-well plates were treated with 20 μM CFTRinh172 for 30 min and then exposed to either 0 ppb (−) or 200 ppb (+) ozone. ATP content of the extracellular media was analyzed after 30 min and cell death was estimated after 8 h of ozone exposure as described in the Methods. The data shown is a representative of 3 experiments (n=6). The bars represent means (SEM) of data and * indicates significant difference (p<0.05) from 0 ppb (− ozone) controls and # indicates significant difference (p<0.05) from 200 ppb exposed cells without CFTRinh172.
# [3] = tested on: primary human bronchial epithelial (HBE), C-38 and IB3-1 cells; assay: Cytotoxicity of 24 h CFTRinh172 incubation; assay type: cell-based; conditions: 20 μM
# IL-8 release [4] = assay: Ozone-mediated IL-8 release with NF-κB inhibitor preincubation; assay type: cell-based, human; conditions: CF cells; 10 μM preincubation 30 min; ozone 18 h
# Procedure: Ozone-mediated cytokine release was studied in polarized air-liquid interface cultures of non-CF and CF cell lines. 16HBEo- and CF4lo- cells were cultured on collagen coated 30 mm inserts. Once cells were polarized (8-10 days in culture) cells were exposed to 0, 100 or 200 ppb ozone with 200 μl media on the apical surface. At the end of exposure (18 h) additional 200 μl media was added to the apical surface. Aliquots were collected after 4 h and analyzed for the cytokine as described before.
# Results are shown in FIG. 18; IL-8 (18A), G-CSF (18B) or GM-CSF (18C). Values are means±SE; n=6, and the figure is a representative of 4 individual experiments; * Significant difference from 0 ppb control, P<0.05 and # Significant difference from non-CF, P<0.05. Effect of preincubation of cells for 30 min with 10 μM [6-amino-4-(4-phenoxyphenylethylamino)quinazoline] For analysis of NF-κB activation, nuclear p65 was measured in non-CF and CF cells after exposure to ozone (E). As described above, cells were harvested and nuclear lysates were prepared after exposure to 200 ppb ozone. The cellular fractions were assessed for p65. Values are means±SE; n=6 and the data is a representative of 2 individual experiments; * Significant difference from 0 ppb control, P<0.05 and # Significant difference from non-CF, P<0.05.
# IL-8 release [5] = assay: IL-8 release after thapsigargin preincubation and ozone; assay type: cell-based, human; conditions: primary airway epithelial cells
# Procedure: Primary airway epithelial cells were cultured on collagen coated 6-well plates. Cells were preincubated with 2 μM thapsigargin for 30 min and then exposed to 200 ppb ozone for 18 h. The supernatant media was collected and analyzed for cytokines as described before. Values are means±SE; n=6 and the data is a representative of 2 individual experiments; * Significant difference from 0 ppb control, P<0.05 and # Significant difference from ozone exposed untreated cells, P<0.05.
# [6] = CF45o- cells, 10 μM preincubation 30 min, ozone 200 ppb, 18 h
compound,measurement,setting,value
Nc1ncnc2c1ncn2[C@@H]1O[C@H](COP(=O)(O)OP(=O)(O)OP(=O)(O)O)[C@@H](O)[C@H]1O [ATP],GM-CSF release,IL-8 and GM-CSF release; [6],enhanced
same,IL-8 release,IL-8 and GM-CSF release; [6],enhanced
O=C(O)c1ccc(/C=C2\SC(=S)N(c3cccc(C(F)(F)F)c3)C2=O)cc1 [CFTRinh172],SERCA2 expression,SERCA2 protein; parent CF cell line IB3-1,did not cause a further decrease
same,SERCA2 protein levels,"SERCA2 protein; primary human bronchial epithelial (HBE) cells, air-liquid interface",significant decrease
same,SERCA2 protein levels,SERCA2 protein; wt-CFTR-corrected C-38 cells,significant decrease
same,cytotoxicity of inhibitor itself,[1]; 0 ppb ozone,negligible cytotoxicity
same,cell death in ozone,[1]; 200 ppb ozone 8 h,further enhanced the cell death
same,Ozone-mediated release of ATP,[2],completely abolished
same,cytotoxicity,[3],did not cause cytotoxicity
"Nc1ccc2ncnc(NCCc3ccc(Oc4ccccc4)cc3)c2c1 [NF-kB inhibitor, 6-amino-4-(4-phenoxyphenylethylamino)quinazoline]",IL-8 levels in ozone,IL-8 release [4],drop to control values
"C/C=C(/C)C(=O)O[C@H]1C(C)=C2[C@H]([C@@H]1OC(=O)CCCCCCC)[C@@](C)(OC(C)=O)C[C@H](OC(=O)CCC)[C@@]1(O)[C@H]2OC(=O)[C@@]1(C)O [Thapsigargin, thapsigargin]",ozone mediated IL-8 release,"IL-8 release [5]; 2 μM for 30 min, then 200 ppb ozone 18 h",further augmented
same,IL-8 release,"IL-8 release [5]; 2 μM, control, 0 ppb exposed cells",enhanced
O=c1ccn([C@@H]2O[C@H](COP(=O)(O)OP(=O)(O)OP(=O)(O)O)[C@@H](O)[C@H]2O)c(=O)[nH]1 [UTP],ozone-mediated cytokine release,"IL-8 and GM-CSF release; CF cells, data not shown",enhanced
